# Values quoted from earlier work in patent US20020012634A1, “Antimicrobial dental materials contraining 2,4,4' -trichloro2' -hydroxydiphenyl ether” (priority 1997, published 2002).
# Assays:
# [1] = test system: Gram-positive and Gram-negative bacteria as well as fungi, yeasts and viruses
# bacteria = conditions: long-term experiments
# plaque bacteria = conditions: toothpaste ingredient, dentifrices
structure (smiles),measurement,setting,value
"Oc1cc(Cl)ccc1Oc1ccc(Cl)cc1Cl [triclosan, 2,4,4′-trichloro-2′-hydroxydiphenyl ether]","antimicrobial activity, in words",[1],highly effective antimicrobial with a broad spectrum of activity
same,solubility in organic solvents,,soluble in many organic solvents
same,water solubility,,low
same,development of bacterial resistance,bacteria,no development of bacterial resistance
same,effect against plaque bacteria / plaque,plaque bacteria,effective against plaque bacteria
